The text below walks through data of patent publication US11541065B2, “Compositions and methods for treating brain injury” (UNM RAINFOREST INNOVATIONS, priority 2018, dated 2023).

For data set [1], the system named is hyperhomocysteinemic rats subjected to MCAO. Put plainly: Accelerated Rotarod test after MCAO. Conditions: HHcy rats, day 8 post MCAO, NVP-AAM077 1.2 mg/kg; untreated HHcy 96.99±4.11 sec. The data set is classed as in vivo, male Wistar rats. The procedure:
All rats were subjected to a battery of behavioral tests on day 7 (CatWalk), day 8 (cylinder and rotarod tests) and day 9 (adhesive test) after MCAO to evaluate normal gait, motor coordination and sensory motor functions. Habituation and training (3 days) was performed for one week before MCAO. The first two trainings days were before osmotic pump implantation and the third training day was after pump implantation. An experienced observer blinded to the experimental conditions evaluated all behavioral parameters.
Accelerated Rotarod test: Control, hyperhomocysteinemic and NVP-AAM077 treated hyperhomocysteinemic rats were subjected to the accelerated Rotarod test to evaluate impairment of motor co-ordination and balance following stroke (Bouet et al., 2007, Exp Neurol 203:555-567; Schaar et al., 2010, Exp Transl Stroke Med 2:13). Rats were placed on a rotating cylindrical rod accelerating from 0 to 50 rpm for a period of 180 seconds, and their latency to fall was recorded. The mean of four runs (10 min rest between trials) was used for statistical analysis. One hyperhomocysteinemic rat was excluded from the study as the rat jumped off the rod repeatedly.

Data set [2] can be described thus: Total plasma homocysteine after osmotic pump implantation, mice (HPLC). The data set is classed as in vivo, WT and GluN2A-KO mice. To be noted: mouse, subcutaneous, 200 mM solution (200 μl osmotic pump, flow rate 1 μl/hr), osmotic pump with 200 mM L-homocysteine; for concentration at 5 day: day 5. The procedure: L-homocysteine (200 mM) was freshly prepared by alkali hydrolysis of L-homocysteine thiolactone hydrochloride followed by neutralization, and maintained in 0.02 mM of N-Tris(hydroxymethyl)methyl-2-aminoethanesulfonic acid buffer pH 7.4 as previously described (Poddar et al., 2001, Circulation, 103:2717-2723). Osmotic pumps (Alzet, 2ML1, flow rate 10 μl/hr; Durect Corp., Cupertino, Calif.) containing either 2 ml of freshly prepared 200 mM L-homocysteine (for hyperhomocysteinemia) or normal saline (for control) were surgically implanted subcutaneously on the back and posterior to the scapulae of male Wistar rats under anesthesia (2% isoflurane in medical grade oxygen). The incision was closed after implantation and the rats were allowed to recover in their cage. For both WT and GluN2A-KO mice, osmotic pumps (Alzet, 2001, flow rate 1 μl/hr; Durect Corp., Cupertino, Calif.) containing either 200 μl of freshly prepared 200 mM L-homocysteine (for hyperhomocysteinemia) or normal saline (for control) were implanted similarly.
Blood was obtained from rats (retro-orbital) and mice (cardiac puncture) under anesthesia with 2% isoflurane in medical grade oxygen, before installation of osmotic pumps (0 day) and at various time points after installation of osmotic pumps (rats: day 3, day 5, and day 7; mice: day 3 and day 5). Blood was collected in standardized VACUTAINER venous blood collection EDTA-tubes (ThermoFisher Scientific, Inc., Waltham, Mass.) and centrifuged at 3,500 rpm for 15 minutes. The plasma obtained was analyzed for total plasma homocysteine levels using high performance liquid chromatography with post-column fluorescence detection as previously described (Gilfix et al., 1997, Clin Chem 43:687-688; Jacobsen et al., 1994, Clin Chem 40:873-881; Miller et al., 2013, Am J Clin Nutr 97:827-834).

The test system of the next data set is [Ca^2+]i. Put plainly: Intracellular Ca^2+ by Fura2 imaging, WT and GluN2A KO mouse neuronal cultures. The format is cell-based, mice. Conditions: somata and processes, L-homocysteine 50 μM, 60 min. As for the experimental part: Embryos obtained from pregnant Sprague Dawley rats (16-17-day gestation) or wild type (WT) and GluN2A KO mice (15-16-day gestation) were used to establish primary cortical neuronal cultures as previously described (Poddar and Paul, 2009, J Neurochem 110:1095-1106; Poddar and Paul, 2013, J Neurochem 124:558-570; Poddar et al., 2017, J Neurochem 142:560-573). Neurons were grown on either (a) 35-mm culture dishes (MatTek Corp., Ashland, Mass.) coated overnight with poly-D-lysine (50 μg/ml) and laminin (10 μg/ml) for Ca^2+ imaging studies, (b) poly-D-lysine-coated 60 mm dishes (Corning BIOCOAT, Corning Inc., Corning, N.Y.) for biochemical studies, or (c) poly-D-lysine-coated 4-well culture slides (Corning BIOCOAT, Corning Inc., Corning, N.Y.) for cell death assay. Neurons were maintained in culture for 12-13 days before experiment. The cells were treated with freshly prepared L-homocysteine (50 μM) in Hank's balanced salt solution containing 50 μM of glycine (Lipton et al., 1997, Proceedings of the National Academy of Sciences of the United States of America 94:5923-5928; Poddar and Paul, 2009, J Neurochem 110:1095-1106; Poddar and Paul, 2013, J Neurochem 124:558-570; Poddar et al., 2017, J Neurochem 142:560-573) for the specified time periods. In a parallel series of experiments, cells were treated with glutamate (50 μM) for the specified time periods. Cells were then processed for live cell imaging, immunoblotting or cell death assay. In some experiments EGTA, DL-AP5, NVP-AAM077, Ro 25-6981 or PD98059 was added 15 minutes prior to L-homocysteine or glutamate treatment.
[Ca^2+]i in neurons was determined using the fluorescent indicator, Fura2-AM. […] Fluorescence excitations (340 and 380 nm) were provided with Sutter LB-LS/30 Lambda xenon arc lamp and fluorescence emissions (510 nm) were captured using a CCD camera (Teledyne Photometries, Tucson, Ariz.). […] Maximum and minimum fluorescence ratios were determined from Fura2 loaded cells treated with ionomycin (5 μM) in calcium containing medium (2 mM) or in calcium free media with EGTA (0.5 mM).

For the compound `C[C@H](NC(c1cccc2[nH]c(=O)c(=O)[nH]c12)P(=O)(O)O)c1ccc(Br)cc1` (stereo partly drawn) [NVP-AAM077, ({[(1S)-1-(4-bromophenyl)ethyl]amino}-(2,3-dioxo-1,4-dihydroquinoxalin-5-yl)methyl)phosphonic acid], the “latency to fall from accelerated rotarod” value in data set [1] was found to be 112.51 ± 4.9 s.

Turning to `N[C@@H](CCS)C(=O)O` [L-homocysteine], the concentration at 3 day was 18.5 ± 2.55 µM in data set [2] (GluN2A-KO mice, day 3, day 0 5.72±0.33 μM) and 19 ± 1.68 µM in data set [2] (WT mice, day 3, day 0 6.6±0.73 μM). For the same compound, the concentration at 5 day in data set [2] (GluN2A-KO mice) turned out to be 15.9 ± 2.09 µM; in data set [2] (WT mice) it was 16.7 ± 1.73 µM. Moreover, the “Fura2 fluorescence ratio and [Ca^2+]i” value is “fails to increase Fura2 fluorescence ratio or [Ca^2+]i” in data set [Ca^2+]i (neurons from GluN2A KO mice); “progressive increase in Fura2 fluorescence ratio and [Ca^2+]i” in data set [Ca^2+]i (neurons from WT mice).
